Measurements reported in patent US20170157145A1, “SUBSTANCE INDUCING EXPRESSION OF PARKIN POLYPEPTIDE AND USE THEREOF” (Samsung Electronics Co., Ltd., priority 2015, published 2017).

Experiments:
human Parkin promoter = assay: Parkin promoter luciferase screening in HEK-Parkin-Luc cell line; type: cell-based; settings: relative to DMSO, 10 μM, about 24 hours
Experimental: To identify compounds capable of inducing expression of Parkin protein at the promoter level, a pGL3-Parkin-Luc DNA construct was used (Cell Death and Differentiation, vol. 18, No. 5, p. 769-782, 2011.05 ). This construct was used to quantify the activity of human Parkin promoter by luminescence intensity due to a luciferase expression level. As a cell line, a human embryonic kidney cell line HEK-293T (ATCC), which maintains Parkin protein activity at a low level, was prepared.
Thereafter, 5 μg/ml of puromycin (Calbiochem) was added to the HEK-293T cells, and cultured at 37° C. and 5 % CO2 for about 21 days. Every 3 days, the medium was replaced by a fresh medium containing 5 μg/ml of puromycin. Stable cell lines were established from single colonies of the cultured cell line. A cell line showing stable luciferase activity was obtained, and designated as HEK-Parkin-Luc, which was used to screen for compounds capable of activating the Parkin promoter. […]
Then, the cultured cells were washed with PBS, and a luminescent substrate (Promega) was added. Luminescence intensity of the cells was measured using a microplate luminometer (Berthold Technologies), and luciferase activity relative to a negative control of 0.1% DMSO was calculated.

Parkin protein = assay: Immunoblotting of Parkin protein in HEK 293T cells; type: cell-based, human; settings: Parkin protein relative to DMSO, 10 μM, about 48 hours
Experimental: Among the 44 compounds selected in the initial screen described in 2, 22 compounds were examined to determine whether they increased expression of Parkin protein when they are applied to an HEK 293T cell line.
10 μM of each compound was added to the HEK 293T cells, and cultured at 37° C. and 5% CO2 for about 48 hours. The cultured cells were collected, and proteins were obtained from the cells. Anti-Parkin protein antibody (Cell signaling) and anti-beta actin antibody (Sigma-Aldrich) were used to perform immunoblotting, and an image of the immunoblotting is shown in FIG. 1.

HEK 293T cell line = assay: Cell protecting effect against H2O2 oxidative stress cytotoxicity (Alamar blue assay); type: cell-based, human; settings: cytotoxicity inhibition ratio relative to DMSO; 10 μM 48 hours, then H2O2 500 μM 90 minutes
Experimental: A cytotoxicity-induced model by application of oxidative stress to the HEK 293T cell line was used. 10 μM of each of the 22 compounds was applied to the HEK cell line and cultured at 37° C. and 5% CO2 for about 48 hours. H2O2 (Sigma-Aldrich, final concentration of 500 μM) was applied to the cultured cells and cultured at 37° C. and 5% CO2 for about 90 minutes. Thereafter, cells were collected and cytotoxicity was examined by Alamar blue® assay (Thermo Fisher Scientific).
The level of H2O2-induced cytotoxicity in cells treated with each of the 22 compounds was compared with cells treated with DMSO alone. 16 compounds having a significant cytotoxicity inhibitory effect (P<0.05) against oxidative stress were selected.
In Table 1, the values of luciferase activity and immunoblotting were expressed relative to DMSO, and the cell protecting effect (%) represents a cytotoxicity inhibition ratio, relative to DMSO. […] Further, “n” represents the number of experiments that were repeated, and “s.e.” represents standard error.

parkin = assay: Parkin expression in mouse brain subregions after i.p. hydrocortisone (immunoblot); type: in vivo; settings: striatum, ventral midbrain and cerebellum; i.p. 7 days; vs vehicle treated control mice; normalized to β-actin
Experimental: The head skin was closed by suturing and wound healing and recovery were monitored following surgery. […] The brain was removed and processed for immunohistochemistry. […] After homogenization, samples were rotated at 4° C. for 30 min for complete lysis, then the homogenate was centrifuged at 52,000 rpm for 20 min, and the resulting fractions were collected. Protein levels were quantified using the BCA kit (Pierce) with BSA standards and analyzed by immunoblot. […] The densitometric analyses of the bands were performed using ImageJ (NIH, http://rsb.info.nih.gov/ij/).

AIMP2 = AIMP2 level in mouse striatum and ventral midbrain after i.p. hydrocortisone (western blot); type: in vivo; settings: hydrocortisone 7 days vs DMSO
Experimental: The head skin was closed by suturing and wound healing and recovery were monitored following surgery. […] The brain was removed and processed for immunohistochemistry. […] After homogenization, samples were rotated at 4° C. for 30 min for complete lysis, then the homogenate was centrifuged at 52,000 rpm for 20 min, and the resulting fractions were collected. Protein levels were quantified using the BCA kit (Pierce) with BSA standards and analyzed by immunoblot.
The densitometric analyses of the bands were performed using ImageJ (NIH, http://rsb.info.nih.gov/ij/).

[1] = test system: tyrosine hydroxylase (TH)-positive dopaminergic neurons in the substantia nigra pars compacta; assay: 6-OHDA-induced PD mouse model, stereological count of TH-positive dopaminergic neurons; type: in vivo; settings: hydrocortisone pretreatment 0.4 mg/kg i.p. daily; 6-OHDA 8 ug intrastriatal on day 7
Experimental: Hydrocortisone was given to mice intraperitoneally. Hydrocortisone administration began on day 1 and continued for 11 days followed by stereological assessment of dopamine neuron counts. 6-OHDA intrastriatal injection was done on day 7. For stereotaxic injection of 6-hydroxy dopamine (6-OHDA, 8 ug), eight-week-old C57/BL6 mice treated either with hydrocortisone for 7 days or DMSO as a control were anesthetized with pentobarbital (60 mg/kg). An injection cannula (26.5 gauge) was applied stereotaxically into the striatum (anteroposterior, 0.5 mm from bregma; mediolateral, 2.0 mm; dorsoventral, 3.0 mm) unilaterally (applied into the right hemisphere). […] The head skin was closed by suturing and wound healing and recovery were monitored following surgery. […] Protein levels were quantified using the BCA kit (Pierce) with BSA standards and analyzed by immunoblot. […]
After scheduled treatments of hydrocortisone (0.4 mg/kg body weight, i.p. administration daily) in 6-OHDA intoxication models and control groups, animals were anesthetized with pentobarbital (50 mg/kg, intraperitoneal injection) and perfused with PBS followed by 4% paraformaldehyde (wt/vol in PBS). […] Total numbers of TH-positive neurons in substantia nigra pars compacta were counted using the Optical Fractionator probe of Stereo Investigator software (MicroBrightfield, Williston, Vt.). […]

| Compound | Luciferase activity (human Parkin promoter) | Immunoblotting (Parkin protein) | Cell protecting effect (%) (HEK 293T cell line) | increase of parkin expression (parkin) | downregulation of parkin's toxic substrate AIMP2 (AIMP2) [%] | dopaminergic neuronal survival against 6-OHDA intoxication [1] |
| --- | --- | --- | --- | --- | --- | --- |
| O=C(c1ccccc1)c1ccc2n1CCC2C(=O)O (racemic) [Ketorolac tromethamine, (±)-5-benzoyl-2,3-dihydro-1H-pyrrolizine-1-carboxylic acid] | 1.31 | 1.95 | 21.49 | – | – | – |
| C[C@]12CCC(=O)C=C1CC[C@@H]1[C@@H]2[C@@H](O)C[C@@]2(C)[C@H]1CC[C@]2(O)C(=O)CO [Hydrocortisone, (11β)-11,17,21-trihydroxypregn-4-ene-3,20-dione] | 1.52 | 1.11 | 35.53 | approximately two fold | 20 | markedly enhanced dopaminergic neuronal survival |
